Legend:
Format in all cases: biochemical
Details in all cases: 200 μg/ml Poly Glu-Tyr (4:1), ATP 1 uM, 90 min room temperature, luminescence
[1] = molecular target: T1, Recombinant JAK3 (Amino acids 781-1124) (Homo sapiens, UniProt P52333); experiment: Kinase-Glo Luminescent Kinase Assay, recombinant JAK3
T1 construct: JAK3 (Amino acids 781-1124; NM_000215.3); made in house; host or cells: baculovirus expression system (Bac-to-Bac)
Source text: (§1) Recombinant JAK1 (Amino acids 850-1154; NM_002227.2), JAK2 (Amino acids 808-1132; NM_004972.3) and JAK3 (Amino acids 781-1124; NM_000215.3) used in the studies were expressed using Invitrogen's Bac-to-Bac baculovirus expression system according to manufacturer's instructions. Adenosine 5′-triphosphate was obtained from Sigma Aldrich chemicals (Cat # A7699). Poly Glu-Tyr (4:1) sodium salt was obtained from Sigma Aldrich (Cat # P0275), Kinase Glo® Luminescent Kinase assay kit was obtained from Promega (Cat # V6713) Kinase activity was assessed by Promega Kinase-Glo® Luminescent Kinase Assay kit using 200 μg/ml Poly Glu-Tyr (4:1) as substrate and ATP at 1 uM concentration. The reactions were carried out in 384 well plates in total reaction volume of 20 uL. Reaction mixtures contained 50 mM HEPES pH 7.4, 5 mM MgCl2, 1 mM DTT, 0.01% BSA, 0.01% Tween 20. Kinase was pre-incubated with compounds or 1% DMSO for 5 min before addition of substrate and ATP to check for inhibition. Kinase reactions were carried out at room temperature for 90 min. The reactions were stopped by adding 5 μl of Kinase Glo® reagent & 10 μl of reaction mixture followed by measuring luminescence. The luminescent signal is correlated with the amount of ATP present at the end of kinase reaction and is inversely correlated with the amount of kinase activity. For each data point, % inhibition is calculated based on uninhibited reaction (without compound) which is considered as 100% activity over no enzyme or substrate controls. Dose response data is then fit using a four parameter logistic equation using Graph-pad Prism 5 software to determine inhibition constant 50 (IC50).

[2] = molecular target: T2, Recombinant JAK2 (Amino acids 808-1132) (Homo sapiens, UniProt O60674); experiment: Kinase-Glo Luminescent Kinase Assay, recombinant JAK2
T2 construct: JAK2 (Amino acids 808-1132; NM_004972.3); made in house; host or cells: baculovirus expression system (Bac-to-Bac)
Source text: as §1

[3] = molecular target: T3, Recombinant JAK1 (Amino acids 850-1154) (Homo sapiens, UniProt P23458); experiment: Kinase-Glo Luminescent Kinase Assay, recombinant JAK1
T3 construct: Recombinant JAK1 (Amino acids 850-1154; NM_002227.2); made in house; host or cells: baculovirus expression system (Bac-to-Bac)
Source text: as §1

T2 sequence (O60674 808-1132): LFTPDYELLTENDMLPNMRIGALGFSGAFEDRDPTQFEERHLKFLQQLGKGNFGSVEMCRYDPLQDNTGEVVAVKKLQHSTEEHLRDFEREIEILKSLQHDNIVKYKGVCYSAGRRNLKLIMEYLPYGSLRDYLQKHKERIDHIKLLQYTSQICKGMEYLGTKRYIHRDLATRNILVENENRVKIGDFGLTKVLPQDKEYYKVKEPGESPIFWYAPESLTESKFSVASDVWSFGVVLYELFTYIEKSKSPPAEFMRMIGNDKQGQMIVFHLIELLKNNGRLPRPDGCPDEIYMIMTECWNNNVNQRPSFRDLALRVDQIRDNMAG
T1 sequence (P52333 781-1124): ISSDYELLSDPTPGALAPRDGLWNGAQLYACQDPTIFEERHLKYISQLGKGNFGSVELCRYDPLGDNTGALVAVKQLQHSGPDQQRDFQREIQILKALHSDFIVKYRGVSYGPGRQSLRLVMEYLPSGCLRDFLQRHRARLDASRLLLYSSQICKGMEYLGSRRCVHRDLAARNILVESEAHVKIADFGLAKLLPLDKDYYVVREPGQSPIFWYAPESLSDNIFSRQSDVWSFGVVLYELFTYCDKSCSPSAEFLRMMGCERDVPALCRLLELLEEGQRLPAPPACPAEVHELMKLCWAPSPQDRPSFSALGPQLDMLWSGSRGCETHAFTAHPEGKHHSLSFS
T3 sequence (P23458 850-1154): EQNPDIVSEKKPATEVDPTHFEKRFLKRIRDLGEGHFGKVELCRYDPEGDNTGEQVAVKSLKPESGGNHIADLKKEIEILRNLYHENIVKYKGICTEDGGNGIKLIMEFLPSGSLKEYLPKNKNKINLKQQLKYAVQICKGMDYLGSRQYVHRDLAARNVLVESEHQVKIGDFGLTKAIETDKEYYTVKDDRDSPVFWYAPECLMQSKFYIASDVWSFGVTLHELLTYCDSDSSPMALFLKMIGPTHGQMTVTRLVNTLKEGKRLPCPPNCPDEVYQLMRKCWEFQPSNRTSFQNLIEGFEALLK

| IC50 [1] | IC50 [2] | IC50 [3] | Compound |
| --- | --- | --- | --- |
| > 0.02 µM | > 0.02 µM |  | CC(C)(C)OC(=O)NC1CCN(c2ccnc3cnc4[nH]ccc4c23)C1 (stereo not shown) [Comp. 124, tert-Butyl N-[1-(3H-pyrrolo[3,2-f][1,7]naphthyridin-9-yl)pyrrolidin-3-yl]carbamate] |
| > 0.02 µM |  | > 0.02 µM | CC(C)(C)OC(=O)N1CCN(c2ccnc3cnc4[nH]ccc4c23)CC1 [Comp. 127, tert-butyl 4-(3H-pyrrolo[3,2-f][1,7]naphthyridin-9-yl)piperazine-1-carboxylate] |
| 0.001 to 0.02 µM |  | 0.001 to 0.02 µM | O=C(C1CC1)N1CCCC(c2ccnc3cnc4[nH]ccc4c23)C1 (stereo not shown) [Ex. 2, cyclopropyl-[3-(3H-pyrrolo[3,2-f][1,7]naphthyridin-9-yl)-1-piperidyl]methanone] |
| > 0.02 µM |  | > 0.02 µM | CC(C)C(=O)N1CCCC(c2ccnc3cnc4[nH]ccc4c23)C1 (stereo not shown) [Ex. 3, 2-methyl-1-[3-(3H-pyrrolo[3,2-f][1,7]naphthyridin-9-yl)-1-piperidyl]propan-1-one] |
| 0.001 to 0.02 µM |  | 0.001 to 0.02 µM | O=C(CC(F)(F)F)N1CCCC(c2ccnc3cnc4[nH]ccc4c23)C1 (stereo not shown) [Ex. 4, 3,3,3-trifluoro-1-[3-(3H-pyrrolo[3,2-f][1,7]naphthyridin-9-yl)-1-piperidyl]propan-1-one] |
| > 0.02 µM |  | 0.001 to 0.02 µM | CC(C)CC(=O)N1CCCC(c2ccnc3cnc4[nH]ccc4c23)C1 (stereo not shown) [Ex. 5, 3-methyl-1-[3-(3H-pyrrolo[3,2-f][1,7]naphthyridin-9-yl)-1-piperidyl]butan-1-one] |
| 0.001 to 0.02 µM |  | 0.001 to 0.02 µM | O=S(=O)(C1CC1)N1CCCC(c2ccnc3cnc4[nH]ccc4c23)C1 (stereo not shown) [Ex. 6, 9-(1-cyclopropylsulfonyl-3-piperidyl)-3H-pyrrolo[3,2-f][1,7]naphthyridine] |
| 0.001 to 0.02 µM |  | 0.001 to 0.02 µM | N#CCS(=O)(=O)N1CCCC(c2ccnc3cnc4[nH]ccc4c23)C1 (stereo not shown) [Ex. 7, 2-[[3-(3H-pyrrolo[3,2-f][1,7]naphthyridin-9-yl)-1-piperidyl]sulfonyl]acetonitrile] |
| 0.001 to 0.02 µM |  | 0.001 to 0.02 µM | CC(C)CS(=O)(=O)N1CCCC(c2ccnc3cnc4[nH]ccc4c23)C1 (stereo not shown) [Ex. 8, 9-(1-isobutylsulfonyl-3-piperidyl)-3H-pyrrolo[3,2-f][1,7]naphthyridine] |
| > 0.02 µM | > 0.02 µM |  | CS(=O)(=O)N1CCC[C@H](c2ccnc3cnc4[nH]ccc4c23)C1 [Ex. 10A, (R)9-(1-methylsulfonyl-3-piperidyl)-3H-pyrrolo[3,2-f][1,7]naphthyridine] |
| > 0.02 µM | 0.001 to 0.02 µM |  | O=C(CC(F)(F)F)N1CC[C@@H](c2ccnc3cnc4[nH]ccc4c23)C1 [Ex. 15B, (S)3,3,3-trifluoro-1-[3-(3H-pyrrolo[3,2-f][1,7]naphthyridin-9-yl)pyrrolidin-1-yl]propan-1-one] |
| > 0.02 µM | 0.001 to 0.02 µM |  | N#CCS(=O)(=O)N1CC[C@H](c2ccnc3cnc4[nH]ccc4c23)C1 [Ex. 16A, (R)2-[3-(3H-pyrrolo[3,2-f][1,7]naphthyridin-9-yl)pyrrolidin-1-yl]sulfonylacetonitrile] |
| > 0.02 µM | > 0.02 µM |  | N#CCS(=O)(=O)N1CC[C@@H](c2ccnc3cnc4[nH]ccc4c23)C1 [Ex. 16B, (S)2-[3-(3H-pyrrolo[3,2-f][1,7]naphthyridin-9-yl)pyrrolidin-1-yl]sulfonylacetonitrile] |
| 0.001 to 0.02 µM | 0.001 to 0.02 µM |  | N#CCC(=O)N1CCC[C@H](c2ncnc3cnc4[nH]ccc4c23)C1 [Ex. 23B, (S)3-Oxo-3-[3-(3H-3,4,6,8-tetraazacyclopenta[a]naphthalen-9-yl)-piperidin-1-yl]-propionitrile] |
| 0.001 to 0.02 µM | 0.001 to 0.02 µM |  | O=C(CC(F)(F)F)N1CCC[C@H](c2ncnc3cnc4[nH]ccc4c23)C1 [Ex. 24B, (S)3,3,3-Trifluoro-1-[3-(3H-3,4,6,8-tetraazacyclopenta[a]naphthalen-9-yl)-piperidin-1-yl]-propan-1-one] |
| > 0.02 µM | > 0.02 µM |  | O=C(NC1CC1)N1CCCC(c2ccnc3cnc4[nH]ccc4c23)C1 (stereo not shown) [Ex. 46, N-cyclopropyl-3-(3H-pyrrolo[3,2-f][1,7]naphthyridin-9-yl)piperidine-1-carboxamide] |

| IC50 [1] | IC50 [2] | IC50 [3] | Compound |
| --- | --- | --- | --- |
| 0.001 to 0.02 µM | 0.001 to 0.02 µM |  | O=C(OCC(F)(F)F)N1CCCC(c2ccnc3cnc4[nH]ccc4c23)C1 (stereo not shown) [Ex. 51, 2,2,2-trifluoroethyl 3-(3H-pyrrolo[3,2-f][1,7]naphthyridin-9-yl)piperidine-1-carboxylate] |
| 0.001 to 0.02 µM | 0.001 to 0.02 µM |  | CC(C)OC(=O)N1CCCC(c2ccnc3cnc4[nH]ccc4c23)C1 (stereo not shown) [Ex. 52, Isopropyl 3-(3H-pyrrolo[3,2-f][1,7]naphthyridin-9-yl)piperidine-1-carboxylate] |
| > 0.02 µM | > 0.02 µM |  | COCCOC1CCCN(c2ccnc3cnc4[nH]ccc4c23)C1 (stereo not shown) [Ex. 57, 9-[3-(2-methoxyethoxy)-1-piperidyl]-3H-pyrrolo[3,2-f][1,7]naphthyridine] |
| 0.001 to 0.02 µM | 0.001 to 0.02 µM |  | c1cc(N2CCCCC2)c2c(cnc3[nH]ccc32)n1 [Ex. 58, 9-(1-piperidyl)-3H-pyrrolo[3,2-f][1,7]naphthyridine] |
| > 0.02 µM |  | > 0.02 µM | CN(C(=O)CC1CC1)C1CCCN(c2ccnc3cnc4[nH]ccc4c23)C1 (stereo not shown) [Ex. 63, 2-cyclopropyl-N-methyl-N-[1-(3H-pyrrolo[3,2-f][1,7]naphthyridin-9-yl)-3-piperidyl]acetamide] |
| > 0.02 µM |  | > 0.02 µM | CC(C)CNC(=O)C1CCCN(c2ccnc3cnc4[nH]ccc4c23)C1 (stereo not shown) [Ex. 67, N-isobutyl-1-(3H-pyrrolo[3,2-f][1,7]naphthyridin-9-yl)piperidine-3-carboxamide] |
| 0.001 to 0.02 µM |  | > 0.02 µM | CS(=O)(=O)NC1CCCN(c2ccnc3cnc4[nH]ccc4c23)C1 (stereo not shown) [Ex. 73, N-[1-(3H-pyrrolo[3,2-f][1,7]naphthyridin-9-yl)-3-piperidyl] methanesulfonamide] |
| > 0.02 µM |  | > 0.02 µM | CC(C)NC(=O)C1CCN(c2ccnc3cnc4[nH]ccc4c23)CC1 [Ex. 75, N-isopropyl-1-(3H-pyrrolo[3,2-f][1,7]naphthyridin-9-yl)piperidine-4-carboxamide] |
| > 0.02 µM |  | > 0.02 µM | O=C(NC1CC1)C1CCN(c2ccnc3cnc4[nH]ccc4c23)CC1 [Ex. 76, N-cyclopropyl-1-(3H-pyrrolo[3,2-f][1,7]naphthyridin-9-yl)piperidine-4-carboxamide] |
| > 0.02 µM |  | > 0.02 µM | COCCNC(=O)C1CCN(c2ccnc3cnc4[nH]ccc4c23)CC1 [Ex. 77, N-(2-methoxyethyl)-1-(3H-pyrrolo[3,2-f][1,7]naphthyridin-9-yl)piperidine-4-carboxamide] |
| > 0.02 µM |  | > 0.02 µM | O=C(NCC(F)(F)F)C1CCN(c2ccnc3cnc4[nH]ccc4c23)CC1 [Ex. 78, 1-(3H-pyrrolo[3,2-f][1,7]naphthyridin-9-yl)-N-(2,2,2-trifluoroethyl)piperidine-4-carboxamide] |
| > 0.02 µM |  | 0.001 to 0.02 µM | CN(C(=O)C1CCCN(c2ccnc3cnc4[nH]ccc4c23)C1)C1CC1 (stereo not shown) [Ex. 79, N-cyclopropyl-N-methyl-1-(3H-pyrrolo[3,2-f][1,7]naphthyridin-9-yl)piperidine-3-carboxamide] |
| 0.001 to 0.02 µM |  | 0.001 to 0.02 µM | CN(CC(F)(F)F)C(=O)C1CCCN(c2ccnc3cnc4[nH]ccc4c23)C1 (stereo not shown) [Ex. 80, N-methyl-1-(3H-pyrrolo[3,2-f][1,7]naphthyridin-9-yl)-N-(2,2,2-trifluoroethyl)piperidine-3-carboxamide] |
| 0.001 to 0.02 µM |  | > 0.02 µM | CN(CC(F)(F)F)C(=O)C1CCN(c2ccnc3cnc4[nH]ccc4c23)CC1 [Ex. 82, N-methyl-1-(3H-yrrolo[3,2-f][1,7]naphthyridin-9-yl)-N-(2,2,2-trifluoroethyl) piperidine-4-carboxamide] |
| > 0.02 µM |  | > 0.02 µM | O=C(CC(F)(F)F)N1CCN(c2ccnc3cnc4[nH]ccc4c23)CC1 [Ex. 103, 3,3,3-trifluoro-1-[4-(3H-pyrrolo[3,2-f][1,7]naphthyridin-9-yl)piperazin-1-yl]propan-1-one] |
| > 0.02 µM |  | > 0.02 µM | O=S(=O)(CC(F)(F)F)N1CCN(c2ccnc3cnc4[nH]ccc4c23)CC1 [Ex. 104, 9-[4-(2,2,2-trifluoroethylsulfonyl)piper-azin-1-yl]-3H-pyrrolo[3,2-f][1,7]naphthyridine] |

— patent US9115133B2, “Substituted fused tricyclic compounds, compositions and medicinal applications thereof” (Advinus Therapeutics Limited, priority 2011, dated 2015)
